# Read-outs that look alike come from different tables or passages of the source.
# How the values were obtained:
# NCI-H460 = assay: cells; conditions: Homo sapiens
# [1] = OVCAR-8, log10 concentration −4.0
# [2] = OVCAR-8, log10 concentration −5.0
# [3] = OVCAR-8, log10 concentration −6.0
# [4] = OVCAR-8, log10 concentration −7.0
# [5] = OVCAR-8, log10 concentration −8.0
# [6] = SF-268, log10 concentration −4.0
# [7] = SF-268, log10 concentration −5.0
# [8] = SF-268, log10 concentration −6.0
# [9] = SF-268, log10 concentration −7.0
# [10] = SF-268, log10 concentration −8.0
# [11] = MDA-MB-468, log10 concentration −4.0
# [12] = MDA-MB-468, log10 concentration −5.0
# [13] = MDA-MB-468, log10 concentration −6.0
# [14] = MDA-MB-468, log10 concentration −7.0
# [15] = MDA-MB-468, log10 concentration −8.0
smiles,measurement,setting,value
"CC(C)c1cnn2c(NCc3ccccc3)cc(N[C@@H](CO)[C@H](O)CO)nc12 [ICEC0318, (3S)-3-(7-(Benzylamino)-3-isopropylpyrazolo[1,5-a]pyrimidin-5-ylamino)butane-1,2,4-triol]",TGI,OVCAR-8; OVCAR-8 (Ovarian Cancer),>1.00E−4
same,Mean Optical Densities,OVCAR-8; [1],0.723
same,Percent Growth,OVCAR-8; [1],10%
same,Mean Optical Densities,OVCAR-8; [2],0.810
same,Percent Growth,OVCAR-8; [2],16%
same,Mean Optical Densities,OVCAR-8; [3],0.803
same,Percent Growth,OVCAR-8; [3],15%
same,Mean Optical Densities,OVCAR-8; [4],1.975
same,Percent Growth,OVCAR-8; [4],89%
same,Mean Optical Densities,OVCAR-8; [5],2.165
same,Percent Growth,OVCAR-8; [5],101%
same,TGI,SF-268; SF-268 (CNS Cancer),3.12E−5
same,Mean Optical Densities,SF-268; [6],0.404
same,Percent Growth,SF-268; [6],−5%
same,Mean Optical Densities,SF-268; [7],0.460
same,Percent Growth,SF-268; [7],5%
same,Mean Optical Densities,SF-268; [8],0.452
same,Percent Growth,SF-268; [8],4%
same,Mean Optical Densities,SF-268; [9],1.234
same,Percent Growth,SF-268; [9],99%
same,Mean Optical Densities,SF-268; [10],1.291
same,Percent Growth,SF-268; [10],106%
same,GI50,"MDA-MB-468; Homo sapiens, MDA-MB-468",165 nM
same,CC50,"MDA-MB-468; Homo sapiens, MDA-MB-468, read-out: LC50",803 nM
same,TGI,MDA-MB-468; MDA-MB-468 (Breast Cancer),3.64E−7
same,Mean Optical Densities,MDA-MB-468; [11],0.121
same,Percent Growth,MDA-MB-468; [11],−72%
same,Mean Optical Densities,MDA-MB-468; [12],0.153
same,Percent Growth,MDA-MB-468; [12],−64%
same,Mean Optical Densities,MDA-MB-468; [13],0.154
same,Percent Growth,MDA-MB-468; [13],−64%
same,Mean Optical Densities,MDA-MB-468; [14],0.884
same,Percent Growth,MDA-MB-468; [14],82%
same,Mean Optical Densities,MDA-MB-468; [15],0.946
same,Percent Growth,MDA-MB-468; [15],93%
same,GI50,NCI-H460; NCI-H460,258 nM
same,CC50,"NCI-H460; NCI-H460, read-out: LC50",> 100 µM

# From US8067424B2, “Selective inhibitors for cyclin-dependent kinases” (Emory University, priority 2007, dated 2011)
